Measurements: paper PMC8157262 (Pharmaceutics, 2021)
Like-named read-outs stand apart in the source and are kept apart here.

How the values were obtained:
[1] = Pharmacokinetics after intravenous administration of tofacitinib and/or voriconazole to rats; settings: Sprague-Dawley, rat, 10 mg/kg
Experimental: In all cases, the treatment was administered intravenously for 1 min via the jugular vein (total injection volume of 4 mL/kg). Blood samples (approximately 0.12 mL for single drug administration and 0.22 mL for co-administration of both drugs) were taken from the carotid artery at 0 (before the start of injection), 1 (right after injection), 5, 15, 30, 60, 120, 180, 240, 360, 480, 600 and/or 720 min after the start of injection. […] Urine samples, collected for 24 h following injection, and gastrointestinal tract (including its contents and feces) samples, collected 24 h after injection, were prepared in accordance with previously reported methods.

[2] = Protein binding of tofacitinib to fresh rat plasma (equilibrium dialysis); type: in vitro ADME; settings: n = 5, read-out: Protein binding (bound fraction) (converted)
Experimental: Briefly, plasma was dialyzed against isotonic phosphate buffer (pH 7.4) in a 1 mL dialysis cell (Spectrum Medical Industries, Los Angeles, CA, USA).

[3] = Sprague-Dawley, rat, in vivo
[4] = tested on: rat hepatic microsomes; settings: for Vmax for the elimination of tofacitinib: liver microsomes, n = 3
[5] = tested on: rat intestinal microsomes
[6] = oral, healthy male adults; cited from earlier work
[7] = tested on: Candida albicans-infected mice; settings: long-term administration to Candida albicans-infected mice; cited from earlier work
[8] = in vivo; settings: Sprague-Dawley, rat; for bioavailability: F
[9] = in vitro; settings: rat, liver microsomes
[10] = in vitro; settings: rat, intestinal microsomes
[11] = cited from earlier work
[12] = tested on: human carbonic anhydrase 1; settings: interaction with acetazolamide; cited from earlier work
[13] = tested on: α-glycosidase; settings: interaction with acarbose; cited from earlier work
[14] = rat hepatic microsomes, 20 μM voriconazole
[15] = rat intestinal microsomes, 20 μM voriconazole
[16] = pH 7.4, with voriconazole 20 μM

Work on `C[C@@H]1CCN(C(=O)CC#N)C[C@@H]1N(C)c1ncnc2[nH]ccc12` [tofacitinib, Tofacitinib] yielded an AUC ([1]; in vivo) of 12.3 µg·h/mL, a CL renal ([1]; in vivo) of 0.217 ± 0.0497 L/h/kg and an AUC ([1]; iv, AUC) of 4.63 µg·h/mL. The CL renal ([1]; iv, CLR) was 0.0864 ± 0.0407 L/h/kg, the Vd ([1]; iv, Vss) was 1.21 ± 0.489 L/kg and the fraction unbound at 8 h, 5 μg/mL ([2]; pH 7.4, tofacitinib 5 μg/mL in the absence of voriconazole) was 0.621. The fraction unbound at 8 h, 5 μg/mL ([2]; pH 7.4, tofacitinib 5 μg/mL in the presence of voriconazole 5 μg/mL) was 0.639, the F [3] was 72.4% and the “'true' fraction of the oral dose unabsorbed (Funabs)” value ([3]; po) was “approximately 0.162%”. The “Fraction of the oral dose absorbed” value ([3]; po) was “more than 99%”, the CLR ([3]; po, 20 mg/kg) was 0.0186 ± 0.00702 L/h/kg and the “Vmax for the elimination of tofacitinib” value ([4]; with 20 μM VCZ) was 1184 ± 470 pmol/min/mg protein. For the same molecule, the “Vmax for the elimination of tofacitinib” value ([4]; without VCZ) was 2895 ± 319 pmol/min/mg protein, the “CLint of tofacitinib slower in the presence of voriconazole” value [4, 14] was 65.5% and the “Vmax of tofacitinib elimination slower in the presence of voriconazole” value [4, 14] was 59.1%. For the same molecule, the “Vmax for the elimination of tofacitinib” value ([5]; intestinal microsomes, with 20 μM VCZ, n = 3) was 212 ± 27.0 pmol/min/mg protein, the “Vmax for the elimination of tofacitinib” value ([5]; intestinal microsomes, without VCZ, n = 3) was 380 ± 86.1 pmol/min/mg protein and the “CLint of tofacitinib slower in the presence of voriconazole” value [5, 15] was 21.1%. The “Vmax of tofacitinib elimination slower in the presence of voriconazole” value [5, 15] was 44.2%, the “AUC of tofacitinib higher when co-administered with fluconazole” value [6] was 79% and the “AUC of tofacitinib higher when combined with ketoconazole” value [6] was 103%. The “Survival rate of infected mice” value [7] was “significantly reduce their survival rate”, the bioavailability [8] was 71.2% and the CL renal ([8]; po, 20 mg/kg, CLR) was 0.322 ± 0.081 L/h/kg. The Tmax ([8]; po, 20 mg/kg) was 1.46 h, the Km ([9]; pH 7.4) was 124 ± 13.7 µM and the microsomal CLint ([9]; pH 7.4) was 23.3 ± 0.689 µL/min/mg. The Km [9, 16] was 147 ± 43.4 µM, the microsomal CLint [9, 16] was 8.05 ± 2.01 µL/min/mg and the Km ([10]; pH 7.4) was 43.1 ± 11.7 µM. For the same molecule, the microsomal CLint ([10]; pH 7.4) was 8.94 ± 1 µL/min/mg, the Km [10, 16] was 30.1 ± 3.29 µM and the microsomal CLint [10, 16] was 7.05 ± 0.12 µL/min/mg. The Volume of distribution ([11]; tofacitinib oral, healthy subjects) was 1.24 L/kg, the Plasma protein binding ([11]; tofacitinib, healthy subjects) was “approximately 40%” and the “Absolute oral bioavailability (F)” value ([11]; tofacitinib, humans) was “approximately 74%”. For the same molecule, the “Fraction processed by CYP2C19” value ([11]; tofacitinib, humans) was 20% and the “Fraction processed by CYP3A4” value ([11]; tofacitinib, humans) was “about 50%”.
For `C[C@@H](c1ncncc1F)[C@](O)(Cn1cncn1)c1ccc(F)cc1F` [voriconazole, Voriconazole], the MRT ([1]; iv) was 6.67 ± 2.48 h, the AUC ([1]; iv, AUC) was 31 µg·h/mL and the MRT ([1]; iv, MRT) was 7.03 h. The half-life ([1]; iv, Terminal half-life) was 5.23 ± 1.61 h, the F [3] was 122% and the “Manner of inhibition of tofacitinib metabolism by voriconazole” value ([4]; Lineweaver–Burk and Dixon plots, rat hepatic microsomes) was “non-competitive manner”. The “Manner of inhibition of tofacitinib metabolism by voriconazole” value ([5]; rat intestinal microsomes) was “non-competitive manner”, the Ki ([5]; read-out: Apparent Ki of voriconazole for the inhibition of tofacitinib metabolism, intestinal microsomes, non-competitive model, n = 3) was 26.2 ± 8.05 µM and the “Type of inhibition of human carbonic anhydrase 1” value [12] was “non-competitive inhibition”. The “Type of inhibition of α-glycosidase” value [13] was “non-competitive inhibition”, the bioavailability [8] was 106% and the AUC ([8]; po, 20 mg/kg, AUC) was 65.6 µg·h/mL. For the same molecule, the Cmax ([8]; po, 20 mg/kg, Cmax) was 7.82 ± 1.13 µg/mL, the Tmax ([8]; po, 20 mg/kg) was 4.38 h and the F ([11]; human, in vivo) was “over 90%”. For the same molecule, the Protein binding ([11]; human, in vivo) was “approximately 58%” and the half-life ([11]; human, in vivo) was “approximately 6 h”.
